# Data as given in article PMC8409970, “In vitro and in silico studies of bis (indol-3-yl) methane derivatives as potential α-glucosidase and α-amylase inhibitors” (Journal of Enzyme Inhibition and Medicinal Chemistry, 2021).
# How the values were obtained:
# HepG2 cells = assay: In vitro cytotoxicity assay (MTT) on HepG2 cells; type: cell-based, Human; details: 20 ∼ 80 μM, 24 h
# Procedure: (§1) Moreover, the preliminary in vitro safety of compounds 5e, 5 g, 5 h, and 5 s were tested on Mouse Preadipocytes cells (3T3-L1) and Human liver cancer cells (HepG2) using MTT method and the results were shown in Figure 11.
# (§2) The 3T3-L1 cells or HepG2 cells were cultured in DMEM medium containing 10% foetal bovine serum, 100 U/mL penicillin and 0.1 mg/mL streptomycin in a humidified incubator with a 5% CO2 atmosphere at 37 °C. Cells in the logarithmic growth phase were used for this assay. After 5 × 10^3 3T3-L1 cells were seeded in 96 well plates for 24 h, compound with different concentration was added into each well for 24 h. MTT reagent (100 μL, 0.5 mg/mL) was added to each well for 4 h incubation. After the supernatant was discarded, 100 μL of DMSO was added. The absorbance was measured at 490 nm. Each sample was performed in 3 parallel experiments.
# α-amylase = biological target: T1, α-amylase (Sus scrofa, UniProt P00690); assay: Inhibition mechanism study of α-amylase inhibitor (enzyme concentration plots, Lineweaver-Burk plots); type: biochemical; details: for Inhibition type against α-amylase: Lineweaver-Burk plots; for KIS value (μM) against α-amylase: binding of inhibitor to enzyme-substrate complex; for Reversibility of α-amylase inhibition: plots of enzyme concentration vs remaining enzyme activity
# T1 sequence (P00690 16-511): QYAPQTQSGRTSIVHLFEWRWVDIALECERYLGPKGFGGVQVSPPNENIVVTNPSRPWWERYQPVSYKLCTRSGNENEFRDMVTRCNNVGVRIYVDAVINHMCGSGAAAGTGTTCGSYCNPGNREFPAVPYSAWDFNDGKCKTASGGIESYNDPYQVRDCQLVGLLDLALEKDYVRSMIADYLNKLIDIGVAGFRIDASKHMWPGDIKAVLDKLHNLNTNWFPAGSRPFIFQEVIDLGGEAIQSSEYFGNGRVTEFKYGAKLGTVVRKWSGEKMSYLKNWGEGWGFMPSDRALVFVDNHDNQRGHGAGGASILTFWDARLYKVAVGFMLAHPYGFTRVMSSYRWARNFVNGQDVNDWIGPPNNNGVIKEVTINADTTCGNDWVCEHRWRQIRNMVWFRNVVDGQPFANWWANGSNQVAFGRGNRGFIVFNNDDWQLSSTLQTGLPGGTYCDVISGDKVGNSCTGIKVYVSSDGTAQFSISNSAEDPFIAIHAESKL
# Procedure: The highest potent inhibitory compounds 5 g, 5 h, and 5 s were evaluated their inhibition mechanism. […] Lineweaver-Burk plots were used to analyse the inhibitory kinetics of compounds 5 g, 5 h, and 5 s. […] Besides, the KI and KIS values of compounds 5 g, 5 h, and 5 s were measured, showing KI values were higher than KIS values (Table 3).
# (§3) The inhibition mechanism of compounds 5 g, 5 h, and 5S was also analysed. The enzyme inhibitory kinetics was detected using plots of enzyme concentration vs remaining enzyme activity at different inhibitor concentrations, and the substrate inhibitory kinetics was obtained from Lineweaver-Burk plot of remaining enzyme activity vs substrate concentration in the presence of different inhibitor concentrations.
# 3T3-L1 cells = assay: In vitro cytotoxicity assay (MTT) on 3T3-L1 cells; type: cell-based, Mouse; details: 20 ∼ 80 μM, 24 h
# Procedure: as §1, §2
# α-glucosidase = α-glucosidase (Saccharomyces cerevisiae, UniProt P53341); assay: Inhibition mechanism study of α-glucosidase inhibitor (enzyme concentration plots, Lineweaver-Burk plots); type: biochemical; details: for Inhibition type against α-glucosidase: Lineweaver-Burk plots; for KIS value (μM) against α-glucosidase: binding of inhibitor to enzyme-substrate complex; for Reversibility of α-glucosidase inhibition: plots of enzyme concentration vs remaining enzyme activity
# Procedure: The relationship of enzyme concentration with enzyme activity in presence of compounds 5e, 5 g, and 5 h was firstly investigated.
# The inhibitory kinetics of compounds 5e, 5 g, and 5 h on α-glucosidase were studied using Lineweaver-Burk plots.
# Besides, we also determined the equilibrium constants of binding of inhibitors to free enzymes (KI) and enzyme-substrate complexes (KIS) through plots of slope (Km/Vm) and vertical intercept (1/Vm) vs inhibitor concentration.
# as §3, with “g, 5e, and” for “g,”, “h” for “h, and 5S”, “analysed using similar above method.” for “also analysed.”, “concentrations.[32]” for “concentrations.”
# Chain of α-glucosidase (P53341 whole entry): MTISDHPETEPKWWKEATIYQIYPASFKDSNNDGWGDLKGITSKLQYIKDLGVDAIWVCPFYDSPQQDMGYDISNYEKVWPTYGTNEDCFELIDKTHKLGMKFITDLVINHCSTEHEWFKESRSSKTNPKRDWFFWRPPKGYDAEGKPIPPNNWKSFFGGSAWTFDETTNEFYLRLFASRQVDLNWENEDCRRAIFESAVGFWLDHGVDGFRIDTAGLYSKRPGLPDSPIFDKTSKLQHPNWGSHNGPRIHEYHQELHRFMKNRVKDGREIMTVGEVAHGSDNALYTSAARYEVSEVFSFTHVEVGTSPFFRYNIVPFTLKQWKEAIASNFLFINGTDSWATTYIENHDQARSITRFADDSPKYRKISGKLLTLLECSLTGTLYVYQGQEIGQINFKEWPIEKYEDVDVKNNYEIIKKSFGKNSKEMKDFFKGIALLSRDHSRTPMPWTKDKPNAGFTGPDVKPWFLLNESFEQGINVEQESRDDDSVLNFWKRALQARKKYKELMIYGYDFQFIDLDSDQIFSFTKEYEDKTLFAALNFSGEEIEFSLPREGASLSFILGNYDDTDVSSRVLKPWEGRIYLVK
structure (smiles),measurement,setting,value
"Cc1ccc2[nH]c(C)c(C(C#N)c3c(C)[nH]c4ccc(C)cc34)c2c1 [Compound 5o, 2,2-Bis(2,5-dimethyl-1H-indol-3-yl)acetonitrile]",melting point,,231.2 to 236.4 °C
"N#CC(c1c[nH]c2ccc(Br)cc12)c1c[nH]c2ccc(Br)cc12 [Compound 5g, 2,2-Bis(5-bromo-1H-indol-3-yl)acetonitrile]",Effect on the viability of HepG2 cells,HepG2 cells,no effect on the viability
same,Inhibition type against α-amylase,α-amylase,Mixed type
same,Inhibition type against α-amylase,α-amylase; listed as 5 g,mixed inhibitors
same,KIS value (μM) against α-amylase,α-amylase,25.02 µM
same,Reversibility of α-amylase inhibition,α-amylase,reversibly inhibited
same,Effect on the viability of 3T3-L1 cells,3T3-L1 cells,no effect on the viability
same,Inhibition type against α-glucosidase,α-glucosidase,Mixed type
same,Inhibition type against α-glucosidase,α-glucosidase; listed as 5 g,mixed-type inhibitors
same,KIS value (μM) against α-glucosidase,α-glucosidase,1.59 µM
same,Reversibility of α-glucosidase inhibition,α-glucosidase,reversible
"N#CC(c1c[nH]c2ccc(F)cc12)c1c[nH]c2ccc(F)cc12 [Compound 5b, 2,2-Bis(5-fluoro-1H-indol-3-yl)acetonitrile]",melting point,,182.7 to 187.5 °C
"N#CC(c1c[nH]c2c(Cl)cccc12)c1c[nH]c2c(Cl)cccc12 [Compound 5f, 2,2-Bis(7-chloro-1H-indol-3-yl)acetonitrile]",melting point,,162.2 to 168.8 °C
"COc1ccc2[nH]cc(C(C#N)c3c[nH]c4ccc(OC)cc34)c2c1 [Compound 5p, 2,2-Bis(5-methoxy-1H-indol-3-yl)acetonitrile]",melting point,,118.5 to 123 °C
"N#CC(c1c[nH]c2cc(Cl)ccc12)c1c[nH]c2cc(Cl)ccc12 [Compound 5e, 2,2-Bis(6-chloro-1H-indol-3-yl)acetonitrile]",Effect on the viability of HepG2 cells,HepG2 cells,no effect on the viability
same,Effect on the viability of 3T3-L1 cells,3T3-L1 cells,no effect on the viability
same,melting point,,175.6 to 178.2 °C
same,Inhibition type against α-glucosidase,α-glucosidase,mixed-type inhibitors
same,KIS value (μM) against α-glucosidase,α-glucosidase,2.11 µM
same,Reversibility of α-glucosidase inhibition,α-glucosidase,reversible
"N#CC(c1c[nH]c2cccc(Cl)c12)c1c[nH]c2cccc(Cl)c12 [Compound 5c, 2,2-Bis(4-chloro-1H-indol-3-yl)acetonitrile]",melting point,,230 to 235.8 °C
"COC(=O)c1ccc2[nH]cc(C(C#N)c3c[nH]c4ccc(C(=O)OC)cc34)c2c1 [Compound 5q, Dimethyl 3,3'-(cyanomethylene)bis(1H-indole-5-carboxylate)]",melting point,,259.6 to 266.9 °C
"Cn1cc(C(C#N)c2cn(C)c3ccccc23)c2ccccc21 [Compound 5r, 2,2-Bis(1-methyl-1H-indol-3-yl)acetonitrile]",melting point,,70.3 to 74.6 °C
"N#CC(c1c(-c2ccccc2)[nH]c2ccccc12)c1c(-c2ccccc2)[nH]c2ccccc12 [Compound 5h, 2,2-Bis(2-phenyl-1H-indol-3-yl)acetonitrile]",Effect on the viability of HepG2 cells,HepG2 cells,no effect on the viability
same,Inhibition type against α-amylase,α-amylase,Mixed type
same,Inhibition type against α-amylase,α-amylase; listed as 5 h,mixed inhibitors
same,KIS value (μM) against α-amylase,α-amylase,1.63 µM
same,Reversibility of α-amylase inhibition,α-amylase,reversibly inhibited
same,Effect on the viability of 3T3-L1 cells,3T3-L1 cells,no effect on the viability
same,melting point,,112 to 117.9 °C
same,Inhibition type against α-glucosidase,α-glucosidase,Mixed type
same,Inhibition type against α-glucosidase,α-glucosidase; listed as 5 h,mixed-type inhibitors
same,KIS value (μM) against α-glucosidase,α-glucosidase,1.69 µM
same,Reversibility of α-glucosidase inhibition,α-glucosidase,reversible
"Cc1ccc2[nH]cc(C(C#N)c3c[nH]c4ccc(C)cc34)c2c1 [Compound 5k, 2,2-Bis(5-methyl-1H-indol-3-yl)acetonitrile]",melting point,,205.1 to 210.1 °C
"N#CC(c1c[nH]c2ccccc12)c1c[nH]c2ccccc12 [Compound 5a, 2,2-Di(1H-indol-3-yl)acetonitrile]",melting point,,173.9 to 178.3 °C
"Cc1[nH]c2ccccc2c1C(C#N)c1c(C)[nH]c2ccccc12 [Compound 5i, 2,2-Bis(2-methyl-1H-indol-3-yl)acetonitrile]",melting point,,231.2 to 236.6 °C
"COC(=O)CNc1ccc(C(C#N)c2ccc(NCC(=O)OC)cc2)cc1 [Compound 7c, Dimethyl 2,2’-(((cyanomethylene)bis(4,1-phenylene))bis(azanediyl))diacetate]",melting point,,135.7 to 140.8 °C
"Cc1[nH]c2ccc(F)cc2c1C(C#N)c1c(C)[nH]c2ccc(F)cc12 [Compound 5n, 2,2-Bis(5-fluoro-2-methyl-1H-indol-3-yl)acetonitrile]",melting point,,183.4 to 188 °C
"Cc1ccc2c(C(C#N)c3c[nH]c4cc(C)ccc34)c[nH]c2c1 [Compound 5l, 2,2-Bis(6-methyl-1H-indol-3-yl)acetonitrile]",melting point,,178.4 to 183.7 °C
"Cc1cccc2c(C(C#N)c3c[nH]c4c(C)cccc34)c[nH]c12 [Compound 5m, 2,2-Bis(7-methyl-1H-indol-3-yl)acetonitrile]",melting point,,214.1 to 219.4 °C
"N#CC(c1c[nH]c2ccc(Cl)cc12)c1c[nH]c2ccc(Cl)cc12 [Compound 5d, 2,2-Bis(5-chloro-1H-indol-3-yl)acetonitrile]",melting point,,168 to 173.4 °C
"CCOC(=O)CNc1ccc(C(C#N)c2ccc(NCC(=O)OCC)cc2)cc1 [Compound 7b, Diethyl 2,2’-(((cyanomethylene)bis(4,1-phenylene))bis(azanediyl))diacetate]",melting point,,87.5 to 93.4 °C
"Cc1cccc2[nH]cc(C(C#N)c3c[nH]c4cccc(C)c34)c12 [Compound 5j, 2,2-Bis(4-methyl-1H-indol-3-yl)acetonitrile]",melting point,,246.2 to 250.1 °C
"Cn1cc(C(C#N)c2cn(C)c3ccc(Br)cc23)c2cc(Br)ccc21 [Compound 5s, 2,2-Bis(5-bromo-1-methyl-1H-indol-3-yl)acetonitrile]",Effect on the viability of HepG2 cells,HepG2 cells,no effect on the viability
same,Inhibition type against α-amylase,α-amylase,Mixed type
same,Inhibition type against α-amylase,α-amylase; listed as 5 s,mixed inhibitors
same,KIS value (μM) against α-amylase,α-amylase,9.01 µM
same,Reversibility of α-amylase inhibition,α-amylase,reversibly inhibited
same,Effect on the viability of 3T3-L1 cells,3T3-L1 cells,no effect on the viability
same,melting point,,177.7 to 181.7 °C
